US6011041A, “Use of anhydrovinblastine” (priority 1996, dated 2000)
Structures can show the parent of a compound that is named as a salt. Where two headings read alike, the source gives them in different places.

Columns and labels:
[1] = system: P388 murine leukemia cells; assay: MTT dose response cytotoxicity, P388 (Table 1, FIG. 5); type: cell-based; settings: Mus musculus, read-out: DRUG IC50
Method: Cytotoxicity experiments on AHVB were performed as direct comparisons with vincristine and navelbine in order to assess its inherent antineoplastic profile against a variety of tumour cell types relative to other relevant vinca alkaloids. The cytotoxicity of AHVB was investigated in vitro against a panel of tumour cell lines of varying lineage in order to determine the specificity of its antitumour activity with respect to cell type. The tumour lines studied were P388 lymphocytic leukemia (a murine lymphocytic leukemia), Noble (Nb) rat U17 lymphoma, MCF7 human breast carcinoma, H460 human non-small cell lung carcinoma, K562 human erythrokeukemia and LS180 human colon carcinoma based on established NCI in vitro new anticancer drug cytotoxicity screening protocols.
Standard dose response cytotoxicity assays (R. Mosmass, J. Immunol. Meth., 65:55-64, 1983) were utilized to determine the IC50 (drug concentration required to induce 50% inhibition of tumour cell growth) for vincristine, navelbine and AHVB. The indicated cell lines were obtained from either the ATCC or NCI tumor repository and were cultured in tissue culture media by standard techniques well known to those skilled in the art, prior to dilution to a defined cell concentration required for the studies in 96 well plates.
A wide range of drug concentrations were exposed to tumour cells growing at log phase in 96-well microtitre plates. Cell concentrations depended on the cell line as well as the length of time to be cultured. Typically, P388 cells were plated at a concentration of 30,000, 2,000 and 750 cells per well for studies lasting 1, 3 and 7 days, respectively MCF7 cells were plated at a concentration of 7,000 and 1,500 cells per well for studies lasting 3 and 7 days, respectively. H460 cells were plated at a concentration of 2,500 and 1,000 cells per well for studies lasting 3 and 7 days, respectively. K562 cells were plated at a concentration of 1,500 and 10,000 cells per well for studies lasting 1 and 3 days, respectively. LS180 cells were plated at a concentration of 5,000 and […] cells per well for studies lasting 3 and 7 days, respectively. After plating all cell lines were incubated (CO2 incubator at 37° C., 5% CO2) for 24 hours prior to addition of the cytotoxic agent (See Table 1). Subsequently the plates were incubated for the indicated time period. At specified times, cells were washed and subsequently exposed to the dye inclusion marker MTT (3-(4,5-dimethylthiazol-2-yl)-2,5diphenyl tetrazolium), which accumulated into viable cells. MTT was added to the cells at a final concentration of 50 μg per well. After a 4 hour incubation, the cells were washed free of media and unreacted MTT, prior to addition of DMSO which was required to solubilize the insoluble formazan precipitate that formed in viable cells. After the sample was mixed through repeated pipetting, the colored product was measured using a plate reader operating at 570 nm. The absorbance values obtained for cells cultured in the absence of drug was assumed to represent 100% viability. Experiments were repeated to substantiate any differences noted between […] and other vinca alkaloids.
A cytotoxicity curve was generated to estimate the IC50 of vincristine, navelbine and AHVB in the murine P388 cell line (see FIG. 5). In this study, P388 cells derived from an ascitic tumor grown in BDF1 were first separated from red cells employing Ficoll-Paque. Isolated while cells were washed twice then placed in serum containing tissue culture media (1×10^5 cells per ml of RPMI 1640 supplemented with L-glutamine, penicillin, streptomycin and 10% fetal bovine serum) and cultured for 2 hours. All non adherent cells were collected and that cell population was defined as P388 cells and used for cytotoxicity assays 24 hours later. Cytotoxicity assays were performed as described in the notes to Table 1. The drug concentrations used are indicated on the X-axis. […]

[2] = acute (14 day) single dose toxicity in healthy male Nb rats (Table 2); type: in vivo, rat; settings: rat, in vivo, ip; male Nb rats, single i.p. injection; read-out: subacutely toxic dosage (highest dose which allowed survival of all animals in a group, 3 out of 3)
Method: (§1) Range-finding acute (14 day), single dose toxicity studies were performed in healthy male Nb rats in order to determine the maximum tolerated dose of vincristine sulfate, navelbine and AHVB when administered as a single, intraperitoneal injection in these rodents (see Table 2). To this end, healthy non-tumor bearing male Nb rats (weight range 333-399 grams) were divided in groups of 3 animals. Each group was used to test one drug at one dosage. The volumes within which the drugs were administered depended on the concentration of the drug solution (in saline) and the weight of the animals, and ranged from 0.1-1.0 ml. Saline was used as a control. The highest dose of each drug which allowed survival of all animals in a group (3 out of 3) was taken as the subacutely toxic dosage for the drug, i.e. 0.7 mg/kg for vincristine, 2.0 mg/kg for navelbine and 3.0 mg/kg for AHVB.
(§2) The health of the animals was assessed by daily weight measurements in addition to behavioral indications of stress. Animals continued to be monitored throughout the complete 14 day study period. Animals were euthanized in the event of signs of severe stress or weight loss in excess of 20%. All animals were necropsied at the end of the study period or at the time of premature euthanasia.

healthy male Nb rats = assay: as above; type: in vivo, rat; settings: single i.p. injection
Method: as §1, §2

[3] = cited from earlier work; for dose limiting toxicity: humans
[4] = weight loss / toxicity in BDF1 mice bearing P388 tumours (FIG. 4); type: in vivo
Method: Groups (five mice per group) of female BDFI mice (Charles Rivers, Canada) were injected (intraperitoneal) with 10^6 P388 cells (as described above). One day after tumor cell inoculation, the mice were given a bolus intravenous injection of indicated drug via the lateral tail vein. Control groups were injected with saline. Free drug samples were prepared on the day of injection such that the final concentrations were sufficient to deliver the indicated drug dose in a volume of 200 μl. All dilutions were made using 0.9% Sodium Chloride Injection USP. The mice were briefly (less than 30 sec.) restrained during intravenous injections. Dilation of the vein was achieved by holding the animals under a heat lamp for a period of between five and ten minutes. Following administration of the test articles, animals were weighed daily for fourteen days and monitored for signs of stress twice daily for the first 14 days (once daily on weekends) and once daily for the remainder of the study. Severely distressed animals were terminated by CO2 asphyxiation and the time of death was recorded to occur on the following day. Although complete dose titrations were completed for each drug, the data shown in FIG. 6 is that obtained after administration of the free drugs at their maximum tolerated dose. This was 3, 40 and 40 mg/kg for vincristine, navelbine and AHVB, respectively.
After treating mice (bearing the P388 tumor) with a single dose of the indicated drug, animals were examined twice daily for the first 14 days (once daily on weekends). Weight gain in the control is an indication of tumor progression.
The studies were conducted as described for FIG. 6. The maximum tolerated dose of AHVB (40 mg/kg) as specified in these studies reflects a very acute (within 1 hour) toxic reaction that limits further dose excalatin for i.v. administration of AHVB.

[5] = 24 h, P388, exposure time 1 day
[6] = 72 h, P388, exposure time 3 days
[7] = 168 h, P388, exposure time 7 days

## CC[C@]1(O)C[C@H]2CN(CCc3c([nH]c4ccccc34)[C@@](C(=O)OC)(c3cc4c(cc3OC)N(C=O)[C@H]3[C@@](O)(C(=O)OC)[C@H](OC(C)=O)[C@]5(CC)C=CCN6CC[C@]43[C@@H]65)C2)C1 [vincristine, Sulfate of 22-oxovincaleukoblastine]
[1]; [5]
  IC50: 0.011 ± 0.0036 µM
[1]; [6]
  IC50: 0.001 ± 0.0003 µM
[1]; [7]
  IC50: 0.002 µM
[2]
  MTD at 336 h: 0.7 mg/kg
Healthy male Nb rats; 0.5 mg/kg
  Mortality (surviving rats/injected rats): 3/3
Healthy male Nb rats; 0.7 mg/kg
  Mortality (surviving rats/injected rats): 3/3
[3]
  dose limiting toxicity: peripheral neuropathy (in the absence of hematological toxicity)
[3]; i.v.
  other adverse reactions reported: abdominal cramps, ataxia, foot drop, weight loss, optic atrophy with blindness, transient cortical blindness, fever, cranial nerve manifestations, parehesia and numbness of the digits, polyuria, dysuria, oral ulceration, headache, vomiting, diarrhea, and intestinal necrosis and/or perforation
[3]; intrathecal
  intrathecal administration outcome: uniformly fatal
[3]; single weekly doses, i.v.
  adverse reactions that can occur with single weekly doses: leukopenia, neuritic pain, constipation, and difficulty in walking
[3]; single weekly doses
  most common adverse reaction: hair loss
  most troublesome adverse reactions: neuromuscular in origin

## CCC1=CC2CN(CCc3c([nH]c4ccccc34)C(C(=O)OC)(c3cc4c(cc3OC)N(C)C3C(O)(C(=O)OC)C(OC(C)=O)C5(CC)C=CCN6CCC43C65)C2)C1 (stereo not drawn) [AHVB, 3',4'-anhydrovinblastine]
[1]; P388, 24 h
  IC50: 0.14 ± 0.053 µM
[1]; P388, 72 h
  IC50: 0.015 ± 0.0087 µM
[1]; P388, 168 h
  IC50: 0.02 µM
[2]
  MTD at 336 h: 3 mg/kg
Healthy male Nb rats; 3.0 mg/kg
  Mortality (surviving rats/injected rats): 3/3
Healthy male Nb rats; 4.4 mg/kg
  Mortality (surviving rats/injected rats): 0/1
Healthy male Nb rats; 10.0 mg/kg
  Mortality (surviving rats/injected rats): 0/3
[4]; i.v., at maximum tolerated dose 40 mg/kg
  time of very acute toxic reaction that limits dose escalation: ≤ 1 h
[4]; single i.v. injection at maximum tolerated dose, AHVB 40 mg/kg
  toxicity ranking (vinca alkaloid induced weight loss): least toxic of the three drugs evaluated

## CCC1=C[C@@H]2CN(C1)Cc1c([nH]c3ccccc13)[C@@](C(=O)OC)(c1cc3c(cc1OC)N(C)[C@H]1[C@@](O)(C(=O)OC)[C@H](OC(C)=O)[C@]4(CC)C=CCN5CC[C@]31[C@@H]54)C2 [navelbine, 3',4'-didehydro-4'-deoxy-C'-norvincaleukoblastine-di-L-tartrate]
[1]; [5]
  IC50: 0.02 ± 0.01 µM
[1]; [6]
  IC50: 0.0007 ± 0.0003 µM
[1]; [7]
  IC50: 0.0025 µM
[2]
  MTD at 336 h: 2 mg/kg
Healthy male Nb rats; 2.0 mg/kg
  Mortality (surviving rats/injected rats): 3/3
Healthy male Nb rats; 5.0 mg/kg
  Mortality (surviving rats/injected rats): 0/3
[4]; i.v., compared with acute toxicity of AHVB
  toxicity at maximum tolerated dose: more prolonged toxicity
[3]
  dose limiting toxicity: hematological toxicities and not neurological side effects
[3]; intravenous
  local side effects: phlebitia or extravasion injury as it is a moderate vasicant
[3]; patients, relative to nausea
  incidence of constipation, vomiting, diarrhea, anorexia, and stomatitis: slightly lesser fraction
[3]; patients
  incidence of mild to moderate nausea: roughly one-third
[3]; single agent
  incidence of mild to moderate peripheral neuropathy (paresthesia and hypesthesia): 10 % of patients
